# Patent publication US8846330B2, “Methods and kits for the diagnosis of RyR1-related diseases” (The Henry M. Jackson Foundation for the Advancement of …, priority 2008, dated 2014)
# “Also recorded” adds a separate entry of the source.
# Experiments:
# [1] = tested on: lymphocyte cells; assay: 4CmC-induced adenosine in swine lymphocyte cells, nucleosides assay (Example 4); format: cell-based; settings: for effect of azumolene on 4CmC-induced adenosine: azumolene up to 1 mM (0-1000 μM)
# Description: Isolation of lymphocytes from whole blood: Lymphocyte cells were isolated from whole blood by Ficoll-Hypaque density gradient centrifugation technique (see Boyum A., Scand. J. Clip. Lab. 97:77-89 (1968)). Isolated lymphocyte cells were dispensed into 3-volume normal Hanks' balanced salt solution (HBSS) and centrifuged (10 minutes at 1000 RPM). The pellet was re-suspended in HBSS to lyse contaminating erythrocytes and spun. The later step was repeated one more time. To maintain simplicity of the protocol for possible MH diagnostic purposes no further purification was attempted. Lymphocyte cells were then cultured in RPMI-1640 media supplemented with 10% fetal bovine serum, […] penicillin and 2 mM glutamine. Cell cultures were incubated at 37° C. in a humidified chamber with 5% CO2. All experiments were completed within 4 days after isolation of lymphocyte cells from whole blood samples.
# Nucleosides Assay Protocol: Briefly, lymphocyte cells (1−2×10^6 cells/test) were suspended in HBSS with or without Ca^2+/Mg^2+ (as indicated for each experiment) plus 0.1% bovine serum albumin (BSA). Experiments were carried out in the presence of the adenosine deaminase inhibitor erythro-9-(2-hydroxy-3-nonyl) adenine-HCl ([…]) to prevent deamination of adenosine to inosine (Lorbar et al., J Mol Cell Cardiol 31: 401-12 (1999)) and incubated at 37° C. for 10 minutes followed by treatment with different 4CmC concentrations (0.05-10 mM). Further incubation at 37° C. for an additional 45 minutes was also carried out. Final volumes of the test tubes were adjusted to 0.2 ml using HBSS buffer. Termination of the cell activity and purification of samples was accomplished by addition of 0.1 ml 12% perchloric acid followed by centrifugation at 5000 RPM for 10 minutes. Aliquots of the supernatant (50 μl) were assayed for adenosine and inosine content using HPLC.
# HPLC Conditions: The HPLC system consisted of a Waters Symmetry C18 column (4.6×250 mm) and mobile phase of 94% KH2PO4 (50 mM, pH 4.6) containing 1-heptanesulfonic acid (0.5 mM) and 6% acetonitrile. Under these conditions, retention times for inosine and adenosine were 4 and 7.3 min, respectively. Peak width of inosine and adenosine were 18 and 36 seconds, respectively. Eluting compounds were detected by their absorbance at 254 nm using a Waters photodiode array detector (model 996). Sample adenosine and inosine concentrations were obtained using a calibrated standard curve of concentrations vs. peak area.
# Statistics: Sample nucleosides concentrations were normalized to represent per 1 million cells and presented as means±SEM. The t-test was applied to test for differences between agonist-induced nucleosides in lymphocyte cells from MHS and normal swine. A P<0.05 considered to indicate statistical significance.
# [2] = tested on: skeletal muscle strips (Vastus lateralis); assay: caffeine halothane contracture test (CHCT), swine muscle strips
# [3] = tested on: lymphocyte cells; assay: 4CmC-induced adenosine in human lymphocyte / immortalized B cells (Example 3); format: cell-based
# [4] = tested on: lymphocyte cells; assay: 4CmC-induced adenosine/inosine in human peripheral blood lymphocytes, HPLC (Example 1); format: cell-based; settings: 4CmC-stimulated lymphocytes
# Description: FIG. 2 is a dose-response curve for 4-chloro-m-cresol (4CmC)-induced intracellular adenosine plus inosine in lymphocyte cells from malignant hyperthermia susceptible (MHS, n=11), not-susceptible (MHN, n=9), and normal (n=7) subjects. Lymphocyte cells were treated with 4CmC in the presence of an inhibitor of adenosine deaminase (EHNA, 0.1 mM). After purification, aliquot was analyzed for adenosine and inosine content using HPLC. Adenosine plus inosine values in the absence of 4CmC are plotted against X=0.02 mM to allow logarithmic display of the entire dose response curve. Adenosine plus inosine levels were normalized to reflect per 1 million cells. 4CmC responses at 1, 2, and 5 mM on MHS groups are about 4, 4, and 6 fold higher than the corresponding values in MI-1N or normal groups with values of 6×10^−5, 8×10^−5, and […], respectively. There were no overlaps between the MHS group and the MHN or normal groups.
# Lymphocyte cells from MHS (n=11), MHN (n=9) and normal (n=7) subjects were suspended in normal HBSS plus 0.1% BSA and treated with adenosine deaminase inhibitor (EHNA, 0.1 mM). After 10 minutes of incubation at 37° C., cells were treated with HBSS, with and without the RyR1 agonist 4CmC (5 mM) and incubated at 37° C. for an additional 45 minutes. After termination and purification of the samples, aliquots (50 μl) were assayed in duplicate for adenosine and inosine content using HPLC. Concentrations are normalized to per 1 million cells. The sum of the adenosine plus inosine level is about 6-fold higher than corresponding values in normal and MHN cells.
# Pilot studies were conducted using blood samples from human subjects in the following groups: Group 1: MHS subjects with positive CHCT and/or having a known MH associated mutation (n=11); Group 2: non-MH susceptible with negative CHCT results (MHN) (n=9), and Group 3: normal subjects who had not undergone CHCT and had no family history of MH (n=7).
# Briefly, venous blood samples (20 ml) were drawn from patients using heparinized blood collection tubes. Peripheral blood lymphocyte cells were isolated from whole blood by the Ficoll-Hypaque centrifugation technique. Briefly, diluted anti-coagulated blood is layered over Ficoll-Hypaque and centrifuged. Mononuclear cells consisting of lymphocytes and some monocytes are recovered at the interface. The cells were washed with the Flanks' balanced salt solution (HBSS) buffer, re-suspended in the HBSS buffer, and treated with different concentration of 4CmC at 37° C. in the presence and/or absence of inhibitor of adenosine deaminase erythro-9-(2-hydroxy-3-nonyl)adenine (EHNA) for about 30 minutes. The cells were then purified by adding an equal volume of 6% HClO4 and centrifuged at 6000 rpm for 10 minutes. Aliquots of the supernatant were analyzed for adenosine and inosine content with HPLC using a Waters Separation Module (Model 2695) equipped with Waters Photodiode Array Detector and Empower software.
# [5] = tested on: biopsied skeletal muscle strips; assay: caffeine halothane contracture test (CHCT), human muscle strips; settings: 2 mM caffeine, average of 3 muscle strips
# Description: Currently definitive MH diagnosis is made by means of the invasive, surgery-requiring caffeine halothane contracture test (CHCT) in North America, by a similar in vitro contracture test (IVCT) in Europe and by technically very difficult calcium induced calcium release (CICR) in Japan; all these tests use biopsied leg muscle (Vasitis lateralis). Other countries are using tests essentially similar to one or these tests. CHCT has a sensitivity of 97% (accurately detects MH susceptible individuals) with a specificity of only 78% (yields 22% false positives). However, because of the invasive surgery, the costs of the test, and the limited viability of the biopsied skeletal muscle samples, the CHCT must be completed within 5 hours post biopsy. Therefore, the muscle biopsies must be conducted at a certified MH diagnostic center or in close-by hospitals (currently there are only 6 MH diagnostic centers in North America). Because of these procedural and logistic complexities, it is estimated that only about 10% of all individuals eligible to undergo the CHCT test are actually tested (estimated from referrals to the North American Malignant Hyperthermia Hotline).
# [6] = muscle strips from normal swine
smiles,measurement,setting,value
"N#CC(C#N)=NNc1ccc(OC(F)(F)F)cc1 [FCCP, Carbonyl cyanide 4-(trifluoromethoxy) phenylhydrazone]",ADO level reached with FCCP alone,"[1]; FCCP 2 and 20 μM, FIG. 14A",0.1 to 0.12 µM
same,effect of FCCP on basal adenosine levels,"[1]; FCCP 2 and 20 μM, FIG. 14A",significantly increased
same,increase of basal ADO levels by FCCP alone,"[1]; FCCP 2 and 20 μM, normal swine, Ca2+/Mg2+ free HBSS",4.5 fold
same,effect of FCCP on 4CmC-induced ADO formation,"[1]; both tested FCCP concentrations, 1 mM 4CmC during FCCP treatment (FIG. 14B)",prevented the maximum increase in ADO formation
same,effectiveness of FCCP in inducing ADO formation relative to 4CmC,[1]; normal swine lymphocytes,25%
"FC(F)(F)C(Cl)Br (centres unmarked) [Halothane, halothane]","Halothane (3%)-induced contractures, mean",[2]; muscle strips from MHS swine,19.2±3.1 mN
same,"Halothane (3%)-induced contractures, range",[2]; muscle strips from MHS swine,11.2-33.1 mN
same,"Halothane (3%)-induced contractures, mean",[2]; [6],1.2±1.0 mN
same,"Halothane (3%)-induced contractures, range",[2]; [6],0-1.8 mN
"CCCCCC[C@@H]([C@@H](C)O)n1cnc2c(N)ncnc21 (racemic) [EHNA, erythro-9(2-hydroxy-3-nonyl)adenine]",inhibition of ADO deaminase by EHNA,"[3]; immortalized B cells from a CHCT positive (MHS) subject, 4CmC 2 mM, FIG. 4",effectively inhibited
same,"EHNA concentration at which inosine formation decreased, matched by equimolar increase in adenosine",[4],≥ 10 µM
same,EHNA concentration at which inosine formation decreased and ADO increased to plateau level,[1]; swine lymphocytes (n=3),≥ 20 µM
"C1CCC[C@H]2CCCN3CC[C@@H](CCCCCC[C@@H]4CCCN5CC[C@@H](CC1)O[C@@H]45)O[C@@H]23 [XeC, Xestospongin C]",effect of XeC alone on basal ADO levels,[3]; XeC 1 and 10 μM,did not produce any change
same,effect of XeC on response of B cells to 4CmC,"[3]; immortalized B cells (MHS, n=3), Ca2+ free HBSS, 2 mM 4CmC",did not affect
same,effect of XeC on 4CmC-induced ADO,"[1]; 1 μM XeC, 2 mM 4CmC, normal swine",did also not affect
same,decrease of 4CmC-induced ADO by XeC,"[1]; 10 μM XeC, 2 mM 4CmC, normal swine (n=5)",27%
same,effect of XeC alone on basal ADO levels,"[1]; XeC 1 and 10 μM, Ca2+/Mg2+-free HBSS",did not affect
same,effect of XeC on 4CmC (2 mM)-induced adenosine,"[1]; XeC as printed in figure legend, normal swine",Significantly (P=0.002) Reduced
O=C1CN(/N=C/c2ncc(-c3ccc(Br)cc3)o2)C(=O)N1 [azumolene],effect of azumolene on 4CmC-induced adenosine,"[1]; 1 mM 4CmC, normal swine (n=5), Ca2+/Mg2+-free HBSS",only marginally inhibited
same,effect of azumolene on 4CmC-induced adenosine,"[1]; 1 mM 4CmC, normal swine (n=5), Ca2+/Mg2+-free HBSS, listed as Azumolene",did not significantly decrease; also recorded: did not significantly affect
same,Ki,"[1]; non-linear curve fitting, 1 mM 4CmC, read-out: apparent Ki value of azumolene for inhibition of 4CmC-induced ADO formation",~5 mM
"Cn1c(=O)c2c(ncn2C)n(C)c1=O [Caffeine, caffeine]","Caffeine (2 mM)-induced contractures, range",[2]; muscle strips from MHS swine,4.7-17.1 mN
same,"Caffeine (2 mM)-induced contractures, mean",[2]; [6],0.4 mN
same,"Caffeine (2 mM)-induced contractures, range",[2]; [6],0-1 mN
same,CHCT Results Contractures (g) 2 mM Caf,"[5]; Table 1, CHCT-negative subjects",0 g
same,CHCT Results Contractures (g) 2 mM Caf,"[5]; Table 2, MHN subjects",0 g
